According to the supplement of paper PMC10307832:

Experiments:
Test in all cases: relative viability (nuclei count vs DMSO), 5 days (fraction); higher = more cells survive
VX-702 + Pemetrexed = compound: NC(=O)c1ccc(N(C(N)=O)c2c(F)cccc2F)nc1-c1ccc(F)cc1F [VX-702] + Nc1nc2[nH]cc(CCc3ccc(C(=O)N[C@@H](CCC(=O)O)C(=O)O)cc3)c2c(=O)[nH]1 [Pemetrexed] (partner 0.2 µM)
Procedure, shortened: (§1)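 Five library-drug doses in √10 steps were combined with a fixed anchor-drug dose, or a single drug was given alone, by pin tool to lung cancer cell lines in 1536-well plates the day after seeding. Nuclei were stained and counted after 5 days. Relative viability is the nuclei count in treated wells over that in vehicle wells, taken as the median of duplicate plates.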

Dabrafenib + Pemetrexed = compound: CC(C)(C)c1nc(-c2cccc(NS(=O)(=O)c3c(F)cccc3F)c2F)c(-c2ccnc(N)n2)s1 [Dabrafenib] + Nc1nc2[nH]cc(CCc3ccc(C(=O)N[C@@H](CCC(=O)O)C(=O)O)cc3)c2c(=O)[nH]1 [Pemetrexed] (partner 0.2 µM)
Procedure, shortened: as §1

VX-702 + Foretinib = compound: NC(=O)c1ccc(N(C(N)=O)c2c(F)cccc2F)nc1-c1ccc(F)cc1F [VX-702] + COc1cc2c(Oc3ccc(NC(=O)C4(C(=O)Nc5ccc(F)cc5)CC4)cc3F)ccnc2cc1OCCCN1CCOCC1 [Foretinib] (partner 0.25 µM)
Procedure, shortened: as §1

VX-702 + Trametinib = compound: NC(=O)c1ccc(N(C(N)=O)c2c(F)cccc2F)nc1-c1ccc(F)cc1F [VX-702] + CC(=O)Nc1cccc(-n2c(=O)n(C3CC3)c(=O)c3c(Nc4ccc(I)cc4F)n(C)c(=O)c(C)c32)c1 [Trametinib] (partner 0.02 µM)
Procedure, shortened: as §1

Cell Line | relative viability (VX-702 + Pemetrexed; first compound 0.02 µM) | relative viability (VX-702 + Pemetrexed; first compound 0.2 µM) | relative viability (VX-702 + Pemetrexed; first compound 0.6325 µM) | relative viability (VX-702 + Pemetrexed; first compound 2 µM) | relative viability (Dabrafenib + Pemetrexed; first compound 0.003 µM) | relative viability (Dabrafenib + Pemetrexed; first compound 0.009487 µM) | relative viability (Dabrafenib + Pemetrexed; first compound 0.03 µM) | relative viability (Dabrafenib + Pemetrexed; first compound 0.09487 µM) | relative viability (Dabrafenib + Pemetrexed; first compound 0.3 µM) | relative viability (VX-702 + Foretinib; first compound 0.02 µM) | relative viability (VX-702 + Foretinib; first compound 0.2 µM) | relative viability (VX-702 + Foretinib; first compound 0.6325 µM) | relative viability (VX-702 + Foretinib; first compound 2 µM) | relative viability (VX-702 + Trametinib; first compound 0.02 µM) | relative viability (VX-702 + Trametinib; first compound 0.2 µM) | relative viability (VX-702 + Trametinib; first compound 0.6325 µM) | relative viability (VX-702 + Trametinib; first compound 2 µM)
NCI-H2023 | 0.231 | 0.264 | 0.199 | 0.198 | 0.229 | 0.247 | 0.207 | 0.211 | 0.255 | 0.761 | 0.722 | 0.724 | 1 | 0.497 | 0.458 | 0.458 | 0.558
NCI-H2085 | 0.82 | 0.957 | 0.949 | 0.852 | 0.707 | 1.05 | 0.861 | 0.864 | 1.08 | 1.05 | 0.898 | 0.967 | 0.968 | 0.547 | 0.537 | 0.588 | 0.374
NCI-H2087 | 0.703 | 0.657 | 0.681 | 0.656 |  | 0.64 | 0.662 | 0.695 | 0.643 | 1.18 | 0.915 | 1.12 | 1.23 | 0.201 | 0.181 | 0.186 | 0.228
NCI-H2126 | 0.717 | 0.659 | 0.676 | 0.624 | 0.624 | 0.808 | 0.623 | 0.706 | 0.756 | 1.15 | 1.1 | 1.21 | 1.18 | 0.511 | 0.542 | 0.547 | 0.544
NCI-H2170 | 0.275 | 0.264 | 0.309 | 0.278 | 0.274 | 0.265 | 0.26 | 0.252 | 0.282 | 1.07 | 1 | 1.08 | 1.03 | 0.999 | 0.891 | 0.958 | 0.987
NCI-H2228 | 0.338 | 0.336 | 0.37 | 0.342 | 0.342 | 0.415 | 0.357 | 0.332 | 0.321 | 0.889 | 0.851 | 1.07 | 0.887 | 0.485 | 0.518 | 0.551 | 0.602
NCI-H2342 | 0.771 | 0.857 | 0.796 | 0.796 | 0.751 | 0.779 | 0.747 | 0.765 | 0.858 | 0.887 | 1.07 | 1.02 | 1.14 | 0.686 | 1.01 | 0.871 | 0.835
NCI-H2347 | 0.425 | 0.43 | 0.438 | 0.415 |  | 0.445 | 0.362 | 0.399 | 0.405 | 1.49 | 0.828 | 1.16 | 1.03 | 0.188 | 0.314 | 0.384 | 0.282
